# Experimental data from PMC12491243, “Rational design of indoleamine 2,3-dioxygenase 1 (IDO1) inhibitors featuring 1,2,3-triazole derivatives with enhanced anti-inflammatory and analgesic efficacy” (Frontiers in Pharmacology, 2025).
# Key:
# KM mice = assay: Acute toxicity test in KM mice; type: in vivo; settings: 500 mg/kg via gavage, 14 days
# Experimental: We evaluated the safety of compound 14e using an acute toxicity test in KM mice. Male mice (8–9 weeks old) were randomly divided into a solvent control group and a 14e-treated group. The control group received an equivalent volume of solvent (5% DMSO +40% PEG300 + 1% Tween-80 + 54% saline) via gavage, while the treatment group received compound 14e solution (500 mg/kg). Beginning on day 1 after administration, body weight and general appearance were monitored for 14 days. At the end of the study, blood samples were collected to determine serum levels of Alanine Aminotransferase (ALT) and Aspartate Aminotransferase (AST). In addition, representative organs (heart, liver, spleen, lung, and kidneys) were excised, weighed, and used to calculate organ indices (organ index = organ weight/body weight × 100%).
# FIGURE 7 Acute toxicity experiments of compound 14e were conducted in mice. (A) The body wight of mice were recorded for 14 days after treatment. (B) The acute toxicity experiments examined the effects of 14e on mouse organs. (C) Effect of acute toxicity experimental studies on blood biochemical indices ALT and AST in mice.
# Iba1-positive microglia = assay: Immunofluorescence of Iba1-positive microglia in spinal dorsal horn of CFA mice; type: in vivo; settings: 3 days after CFA, 30 mg/kg i.p.
# Experimental: Given the critical role of microglial activation in inflammation-mediated responses, we investigated whether Compound 14e could modulate microglial activity in the spinal dorsal horn of mice following Complete Freund’s Adjuvant (CFA) injection. First, we assessed the expression of the microglial marker Iba1 in the L4–L6 segments of the spinal cord.
# FIGURE 4 Compound 14e prevented the upregulation of Iba1 in CFA mice.
# The mice were anesthetized with isoflurane, and 40 μL of CFA (Sigma-Aldrich) was intraplantarly injected into the mid-plantar surface of their left hind paws. As for the control group, an equivalent volume of normal saline was injected ([Jiang et al., 2018]).
# (§1) The compound 14e were diluted with 10% DMSO, and were intraperitoneally injected with 30 mg/kg into the mice once a day for 3 days after CFA. The dosage of compound 14e was determined based on our preliminary experiments.
# Under anesthesia with 1% pentobarbital sodium (0.1 g/kg, i. p.), mice were perfused intracardially with warm normal saline followed by cold 4% paraformaldehyde (PFA) in 0.1 M phosphate buffer (PB). The whole spinal cord in L4 – L5 segments was rapidly dissected and post-fixed in 4% PFA for 6 h, then cryoprotected by incubation of PB with 20% and 30% sucrose solutions at 4 °C in turn. […] Images were taken with a fluorescence microscope (BX53, Olympus).
# IDO1 = molecular target: T1, IDO1 (Homo sapiens, UniProt P14902); assay: HeLa cell-based IDO1 inhibition assay; settings: HeLa cells, 100 ng/mL human IFN-γ, 18 h, kynurenine absorbance at 480 nm
# T1 construct: endogenous in cells; host or cells: HeLa cells stimulated with 100 ng/mL human IFN-γ
# T1 sequence (P14902 whole entry): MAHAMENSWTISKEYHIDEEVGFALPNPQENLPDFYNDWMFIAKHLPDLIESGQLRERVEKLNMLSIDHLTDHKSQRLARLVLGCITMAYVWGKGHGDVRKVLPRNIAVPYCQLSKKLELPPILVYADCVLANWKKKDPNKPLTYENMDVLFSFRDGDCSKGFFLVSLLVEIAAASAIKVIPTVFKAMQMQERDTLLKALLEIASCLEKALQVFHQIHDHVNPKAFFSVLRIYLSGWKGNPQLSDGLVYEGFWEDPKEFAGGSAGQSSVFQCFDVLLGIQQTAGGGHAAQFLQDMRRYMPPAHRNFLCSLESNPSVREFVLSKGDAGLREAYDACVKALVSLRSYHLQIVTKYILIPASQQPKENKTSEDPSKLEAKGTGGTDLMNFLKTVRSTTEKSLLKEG
# Experimental: To evaluate the IDO1 inhibitory activity of the newly synthesized derivatives, HeLa cells with high IDO1 expression were used as the experimental model. […] To perform the HeLa cell-based IDO1 inhibition assay, HeLa cells were seeded at a density of 50,000 cells per well in a 96-well microplate containing 100 μL of DMEM supplemented with 10% fetal bovine serum and 1% penicillin-streptomycin. The cells were incubated overnight at 37 °C in a humidified atmosphere with 5% CO2. The following day, 100 μL of growth medium containing diluted inhibitors and 100 ng/mL human IFN-γ was added to each well. The cells were then incubated at 37 °C in a CO2 incubator for 18 h. […] The plate was incubated at 50 °C for 30 min and then centrifuged at 2,500 rpm for 10 min to remove any sediment. Next, 100 μL of the supernatant was transferred to a separate 96-well plate and mixed with 100 μL of 2% (w/v) 4-(dimethylamino)benzaldehyde in acetic acid. After a 10-min incubation at room temperature, the absorbance of the resulting yellow color, indicative of kynurenine, was measured at 480 nm using a microplate reader.
# [1] = test system: CFA-induced inflammatory pain model; assay: CFA-induced thermal hyperalgesia, paw withdrawal latency; type: in vivo; settings: CFA mice, 30 mg/kg i.p., ipsilateral side, 12 to 72 h post-CFA
# Experimental: To evaluate the analgesic effects of Compound 14e in vivo, we established an inflammatory pain model using intraplantar injection of CFA. Compound 14e (30 mg/kg) was administered intraperitoneally at 6 h, with subsequent doses at 48 and 72 h after CFA injection. Behavioral assessments, including von Frey testing for mechanical allodynia and heat stimuli for thermal hyperalgesia, were conducted on the injected hind paw at baseline (BL), as well as at 6, 12, 18, 24, 48 and 72 h post-CFA injection. Additionally, flinching and guarding behaviors, indicators of spontaneous pain, were evaluated 72 h after CFA injection.
# FIGURE 5 Compound 14e attenuates mechanical allodynia, thermal hyperalgesia and spontaneous pain of inflammatory pain in mice. (A,B) Evaluation of CFA-induced mechanical allodynia as assessed by withdrawal frequency to 0.07 g (A) and 0.4 g (B) von Frey filaments in mice repetitive treated with 10% DMSO or compound 14e. […]
# as §1
# For the thermal nociceptive response, paw withdrawal latencies (PWLs) to thermal stimulus were measured by a heat flux radiometer (Ugo Basile S.R.L., Italy) ([Liu et al., 2023]). […]
compound,measurement,setting,value
O=C1COc2ccc(NC(=O)c3cccc(-c4cn(Cc5c(F)cccc5Cl)nn4)c3)cc2N1 [Compound 14e],"acute toxicity, overall",KM mice,does not cause noticeable toxicity
same,"organ indices (heart, liver, spleen, lung, kidneys)",KM mice,remained stable
same,serum ALT level,KM mice,did not significantly affect
same,serum AST level,KM mice,did not significantly affect
same,body weight,KM mice; versus solvent control,no significant changes
same,morphological changes and accumulation of Iba1-positive microglia (immunofluorescence),Iba1-positive microglia,notably alleviated
same,IC50,IDO1,3.63 µM
same,"thermal hyperalgesia, paw withdrawal latency (PWL)",[1],significantly alleviated
